pIC50: −log10 of the molar value. Where two headings read alike, the source gives them in different places.
Tests used:
[1] = system: tumor necrosis factor-α secretion in RAW 264.7 cells; assay: Inhibition of LPS-stimulated tumor necrosis factor-α secretion in RAW 264.7 cells (ELISA); type: cell-based, mouse
Experimental: After the activation by bacterial lipopolysaccharide (LPS), various inflammatory mediators such as tumor necrosis factor-α will be released; Phosphodiesterase PDE4 is also expressed in macrophages, and the inhibitory activity of the compound on phosphodiesterase PDE4 can be reflected by detecting the secretion of tumor necrosis factor-α.
Under the stimulation of 1 μg/ml LPS (L5886, Sigma, St. Louis, MO, USA), the cells were cultured in a 37° C., 5% CO2 incubator for 4 h. The background control with no stimulant and stimulation control wells were also set, with a total volume of 200 μl. The culture supernatant was collected by centrifugation, and the secretion level of tumor necrosis factor-α in the culture supernatant was detected by enzyme-linked immunosorbent assay. The tumor necrosis factor-α detection kit was purchased from BD Pharmingen (San Diego, CA, USA).

[2] = Cytotoxicity on RAW 264.7 cells (CCK-8 method); type: cell-based, mouse; details: mouse, RAW 264.7 cells; drug concentration required to cause median cytotoxicity, RAW 264.7
[3] = system: RAW 264.7 cells; assay: Cytotoxicity on RAW 264.7 cells (CCK-8 method); type: cell-based, mouse
[4] = system: TNF-α secretion in PBMC; assay: Inhibition of LPS-stimulated TNF-α secretion in PBMC (ELISA); type: cell-based; details: Homo sapiens, TNF-α secretion in PBMC
Description: According to the difference in cell density in human blood, PBMC (peripheral blood mononuclear cell, PBMC) was directly separated and purified by gradient centrifugation using lymphocyte separation fluid. The cell type was mononuclear cells in blood, mainly including lymphocytes (T/B), monocytes, macrophages, dendritic cells and other minor cell types, of which lymphocytes account for a large part, which can directly in vitro simulate the blood immune environment.
PBMC cells isolated from human blood were implanted into 96-well plates at 2*10^5/ml; compounds in gradients were added, with at least three replicates for each gradient; After the PBMCs were incubated at 37° C., 5% CO2 for 1 hour, LPS was added (the final concentration was 10 ug/ml) to stimulate PBMC to express TNF-α, and incubated for another 18-20 h at 37° C., 5% C02. The 96-well plate was collected. The background control with no stimulant and stimulation control wells were also set, with a total volume of 200 μl. The culture supernatant was collected by centrifugation, and the expression level of TNF-α in the culture supernatant was detected by ELISA.

[5] = Rat pharmacokinetic test; type: in vivo; details: for Vd: read-out: Vss; for bioavailability: oral, gavage 20 mg/kg vs intravenous 10 mg/kg, dosage standardized, read-out: F (absolute bioavailability)
Experimental: Six male healthy rats weighing 150-200 g were randomly divided into 2 groups (n=3). Compounds 14, 16, 17, 18, 22 and 29 of the present invention were administered by gavage and intravenous injection, respectively, at a administration volume of 10 mL/kg. The drug was formulated with DMSO/Tween 80/saline solution (5:5:90, v/v/v). The rats were fasted for 12 h before testing, water ad lib, and uniformly feeded 2 h after administration.
gavage administration: 0.25, 0.5, 1.0, 2.0, 4.0, 6.0, 8.0 and 24 h after administration:
intravenous administration: 5 min, 0.25, 0.5, 1.0, 2.0, 4.0, 6.0, 8.0 and 24 h after administration;
0.3 mL of venous blood was collected at the above time points via the rat eye vein venous plexus, placed in heparinized test tube, centrifuged at 11000 rpm for 5 min. Plasma was separated and frozed in a −20° C. refrigerator.
The concentration of compounds in rat plasma was determined by LC/MS/MS. The pharmacokinetic parameters after administration were calculated by a non-compartmental model of DAS 3.0 software.

[6] = Beagle dog pharmacokinetic test; type: in vivo
Experimental: Six male healthy beagle dogs weighing 9-11 kg were randomly divided into 2 groups (n=3). The compound (S)-C8 of the present invention was administered by gavage administration and intravenous injection, respectively, and the administration volume was 5 mL/kg and 1 mL/kg, respectively. The gavage administration was formulated with 0.5% CMC-Na+0.25% Tween 80, and intravenous administration was formulated with 5% DMSO/40% PEG400/55% saline.
• gavage administration: 0.25, 0.5, 1.0, 2.0, 4.0, 6.0, 8.0 and 24 h after administration; • intravenous administration: 5 min, 0.25, 0.5, 1.0, 2.0, 4.0, 6.0, 8.0 and 24 h after administration; • 1 ml of venous blood was taken at the above time points from the veins of the extremities, placed in an EDTA-2K anticoagulation tube, and centrifuged at 3500 rpm for 10 minutes. Plasma was separated, and frozen in a −20° C. refrigerator. 3. Sample Testing and Data Analysis
The concentration of compound (S)-C8 in Beagle dog plasma was determined by LC/MS/MS.
The pharmacokinetic parameters after administration were calculated by a non-compartmental model of Phoenix 1.3 software (Pharsight, USA).

[7] = molecular target: Human PDE4D catalytic domain (Homo sapiens (Human), UniProt Q08499); assay: Scintillation Proximity Assay (SPA), inhibition of PDE4D catalytic domain activity; type: biochemical
Human PDE4D catalytic domain, sequence (Q08499 386-715): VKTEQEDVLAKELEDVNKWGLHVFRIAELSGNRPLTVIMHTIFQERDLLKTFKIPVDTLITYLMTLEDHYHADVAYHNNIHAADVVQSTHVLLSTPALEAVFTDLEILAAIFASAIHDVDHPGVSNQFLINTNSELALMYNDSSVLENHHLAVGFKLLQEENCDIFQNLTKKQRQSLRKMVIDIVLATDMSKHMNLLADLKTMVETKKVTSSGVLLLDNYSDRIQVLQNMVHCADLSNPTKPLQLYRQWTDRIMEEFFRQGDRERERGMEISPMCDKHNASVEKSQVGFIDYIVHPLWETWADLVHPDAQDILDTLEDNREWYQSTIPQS
Experimental: The scintillation Proximity Assay (SPA) method was used to determine the inhibitory effect of compounds on the activity of PDE4D catalytic domain. Human PDE4D catalytic domain protein was obtained by expression and purification in E. coli. […] [^3H]-cAMP, scintillation beads (RPNQO150, Perkin Elmer), and 96-well scintillation microplates (Isoplate-96, Perkin Elmer) were purchased from Perkin Elmer Company.
Finally, 10 μl [^3H]-cAMP (0.005 μCi/μl) was added and incubated for 30 min at 30° C. in a water bath. 50 μl SPA beads was added to quench the reaction, shaked appropriately, and stood for 20 minutes. A microplate scintillation counter was used.

[8] = system: acute inflammation model of mouse back air sac; assay: Acute inflammation model of mouse back air sac (carrageenan); type: in vivo; details: oral gavage 5 mg/kg
Experimental: On the first day of the experiment, mice were subcutaneously injected with 3 ml of air on the back, and subcutaneously injected with 1.5 ml of air on the back on day 3, and subcutaneously injected with 1 ml of 2% carrageenan (Sigma-Aldrich, St. Louis, MO, USA) on the back on day 6 for sensitization. 4 hours after sensitization, secretion in the air sac was lavaged with phosphate buffer solution. The lavage fluid was used for white blood cell count and inflammatory factor detection. […] Tumor necrosis factor-α and interleukin-6 detection kits were purchased from BD Pharmingen (San Diego, CA, USA).

[9] = intravenous injection, 10 mg/kg
[10] = male, plasma, intravenous injection, 10 mg/kg
[11] = male, plasma, iv, 10 mg/kg, intravenous injection, 10 mg/kg, read-out: AUC0-t
[12] = male, plasma, po, 20 mg/kg, gavage, 20 mg/kg, read-out: AUC0-t
[13] = male, plasma, po, gavage, 20 mg/kg
[14] = male, plasma, intravenous injection, 3 mg/kg
[15] = male, plasma, po, gavage, 10 mg/kg

CCOc1cc2c(cc1OC)CCN(C=O)[C@H]2CCc1c[nH]c2ccc(OC)cc12 [(S)-C8, (S)-7-ethoxy-6-methoxy-1-(2-(5-methoxy-1H-indol-3-yl)ethyl)-3,4-dihydroisoquinoline-2(1H)-formaldehyde]
inhibition at 0.5 µM ([1]; Mus musculus, RAW264.7, 4 h, RAW 264.7, 0.5 μM, read-out: Tumor necrosis factor-α inhibition rate/%): -6%
inhibition at 5 µM ([1]; Mus musculus, RAW264.7, 4 h, RAW 264.7, 5 μM, read-out: Tumor necrosis factor-α inhibition rate/%): 60.4%
inhibition at 50 µM ([1]; Mus musculus, RAW264.7, 4 h, RAW 264.7, 50 μM, read-out: Tumor necrosis factor-α inhibition rate/%): 58.1%
pIC50 ([1]; Mus musculus, RAW264.7, RAW 264.7): 5.72
inhibitory activity on tumor necrosis factor-α compared with the positive compound Apremilast ([1]; RAW 264.7): comparable or stronger
CC50 at 4 h [2]: > 50000 nM
Cell survival rate/% ([3]; RAW 264.7, 0.5 μM): 89.2%
Cell survival rate/% ([3]; RAW 264.7, 5 μM): 96.1%
Cell survival rate/% ([3]; RAW 264.7, 50 μM): 93.8%
inhibition at 1 µM ([4]; 1 μM, read-out: Inhibition rate %): 79.7%
inhibition at 10 µM ([4]; 10 μM, read-out: Inhibition rate %): 86.8%
pIC50 ([4]; read-out: IC50): 7.59
pIC50 ([4]; read-out: IC50 value): 7.59
AUC0-t ([5]; gavage, 20 mg/kg): 491 ng·h/mL
t1/2 ([5]; gavage, 20 mg/kg): 1.03 h
AUC0-t [5, 9]: 2640 ng·h/mL
AUC(0-inf) [5, 10]: 2640 ng·h/mL
MRT [5, 10]: 0.544 h
half-life [5, 10]: 0.707 h
Vd [5, 10]: 2.1 L/kg
AUC0-t [5, 11]: 2640 ng·h/mL
bioavailability ([5]; male, plasma): 9.3%
AUC0-t [5, 12]: 508 ng·h/mL
AUC(0-inf) [5, 13]: 508 ng·h/mL
MRT [5, 13]: 2 h
Tmax [5, 13]: 1.33 h
half-life [5, 13]: 1.03 h
AUC0-t ([6]; gavage, 10 mg/kg): 16601 ng·h/mL
t1/2 ([6]; gavage, 10 mg/kg): 2.92 h
AUC0-t ([6]; intravenous injection, 3 mg/kg): 9610 ng·h/mL
AUC(0-inf) [6, 14]: 9800 ng·h/mL
MRT [6, 14]: 2.37 h
half-life [6, 14]: 1.96 h
AUC0-t ([6]; male, plasma, intravenous injection, 3 mg/kg, read-out: AUC0-t): 9610 ng·h/mL
Vd ([6]; male, plasma, intravenous injection, 3 mg/kg, read-out: Vss): 0.96 L/kg
bioavailability ([6]; male, plasma, oral, gavage 10 mg/kg vs intravenous 3 mg/kg, dosage standardized, read-out: F (absolute bioavailability)): 52.3%
Cmax [6, 15]: 4680 ng/mL
MRT [6, 15]: 3.61 h
Tmax [6, 15]: 0.5 h
half-life [6, 15]: 2.92 h
AUC0-t ([6]; male, plasma, po, gavage, 10 mg/kg, read-out: AUC0-t): 16600 ng·h/mL
inhibition at 1 µM ([7]; Compound concentration: 1 μM, read-out: PDE4D enzyme activity inhibition rate %): 95%
IC50 ([7]; PDE4D, unit given as mM, read-out: IC50): 80 nM
pIC50 ([7]; read-out: IC50 value of PDE4 inhibitory activity): > 7.00
number of leukocyte infiltration ([8]; air sac lavage): reduce
secretion level of interleukin-6 in lavage [8]: reduce
secretion level of tumor necrosis factor-α in lavage [8]: reduce
inflammatory response ([8]; 24 h and 1 h before sensitization): significantly reduce

CCOc1cc2c(cc1OC)CCN(C=O)[C@H]2CCc1c[nH]c2cc(C)ccc12 [(S)-C7, (S)-7-ethoxy-6-methoxy-1-(2-(6-methyl-1H-indol-3-yl)ethyl)-3,4-dihydroisoquinoline-2(1H)-formaldehyde]
CC50 at 4 h [2]: > 50000 nM
Cell survival rate/% ([3]; RAW 264.7, 0.5 μM): 71.3%
Cell survival rate/% ([3]; RAW 264.7, 5 μM): 93.4%
Cell survival rate/% ([3]; RAW 264.7, 50 μM): 96.1%
AUC0-t ([5]; gavage, 20 mg/kg): 9232.3 ng·h/mL
AUC0-t [5, 9]: 6761.8 ng·h/mL
AUC(0-inf) [5, 10]: 6760 ng·h/mL
MRT [5, 10]: 0.9 h
half-life [5, 10]: 0.2 h
Vd [5, 10]: 0.53 L/kg
AUC0-t [5, 11]: 6760 ng·h/mL
bioavailability ([5]; male, plasma): 68.3%
Cmax ([5]; male, plasma, po, 20 mg/kg, gavage): 2380 ng/mL
AUC0-t [5, 12]: 9230 ng·h/mL
AUC(0-inf) [5, 13]: 9230 ng·h/mL
MRT [5, 13]: 2.6 h
Tmax [5, 13]: 1 h
half-life [5, 13]: 1 h

Source: patent publication US12145923B2, “Tetrahydroisoquinoline compound, preparation method therefor, pharmaceutical composition containing same, and use thereof” (SHANGHAI INSTITUTE OF MATERIA MEDICA, CHINESE ACADEMY OF …, priority 2018, dated 2024)
